pIC50: −log10 of the molar value.
Each molecule was assayed against PIK3CG (human) (UniProt P48736) (assay: Assessment of PIK3CG Kinase Activity).
PIK3CG (human), sequence (P48736 whole entry, looked up): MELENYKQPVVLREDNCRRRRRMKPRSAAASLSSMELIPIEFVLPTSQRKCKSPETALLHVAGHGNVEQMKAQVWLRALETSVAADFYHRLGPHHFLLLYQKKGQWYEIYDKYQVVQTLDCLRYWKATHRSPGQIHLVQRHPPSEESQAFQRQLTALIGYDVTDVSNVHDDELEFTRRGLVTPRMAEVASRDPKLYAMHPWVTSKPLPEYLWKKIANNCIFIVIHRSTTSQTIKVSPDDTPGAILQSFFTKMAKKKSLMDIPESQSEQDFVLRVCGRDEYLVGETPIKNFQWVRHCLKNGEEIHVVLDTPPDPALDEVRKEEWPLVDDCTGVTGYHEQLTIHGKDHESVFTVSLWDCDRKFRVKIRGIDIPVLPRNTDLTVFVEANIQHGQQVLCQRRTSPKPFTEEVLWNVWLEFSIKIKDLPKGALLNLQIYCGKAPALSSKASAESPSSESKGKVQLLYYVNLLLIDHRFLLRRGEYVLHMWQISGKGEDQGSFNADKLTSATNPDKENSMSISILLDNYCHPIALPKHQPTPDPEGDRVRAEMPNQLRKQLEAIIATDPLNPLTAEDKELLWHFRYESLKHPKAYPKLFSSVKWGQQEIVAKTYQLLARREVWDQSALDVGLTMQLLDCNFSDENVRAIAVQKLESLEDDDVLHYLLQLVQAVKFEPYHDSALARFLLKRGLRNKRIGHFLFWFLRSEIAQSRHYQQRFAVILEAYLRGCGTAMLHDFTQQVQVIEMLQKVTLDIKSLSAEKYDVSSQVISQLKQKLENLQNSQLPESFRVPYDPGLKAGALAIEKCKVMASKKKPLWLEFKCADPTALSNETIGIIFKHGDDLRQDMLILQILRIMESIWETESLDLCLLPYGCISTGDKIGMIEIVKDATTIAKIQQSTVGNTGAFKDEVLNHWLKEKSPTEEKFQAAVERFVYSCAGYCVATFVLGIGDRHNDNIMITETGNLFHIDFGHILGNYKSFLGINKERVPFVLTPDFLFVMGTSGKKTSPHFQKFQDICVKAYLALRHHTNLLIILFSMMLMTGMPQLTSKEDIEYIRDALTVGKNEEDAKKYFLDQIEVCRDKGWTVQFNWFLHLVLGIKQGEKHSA

pIC50, > 6.10:
CC(C)N(C)C(=O)N[C@H]1CCN(C(=O)Nc2nc3c(s2)-c2nc(-c4ccccc4Cl)ncc2CC3)C1, Nc1cccc(CNC(=O)Nc2nc3c(s2)-c2nc(-c4ccccc4Cl)ncc2CC3)c1, CC(C)c1noc(CCNC(=O)Nc2nc3c(s2)-c2nc(-c4ccccc4Br)ncc2CC3)n1, CCn1cc(CNC(=O)Nc2nc3c(s2)-c2nc(-c4ccccc4Br)ncc2CC3)cn1, O=C(Nc1nc2c(s1)-c1nc(-c3ccccc3Cl)ncc1CC2)N1CC[C@@H](NC(=O)N2CCCC2)C1, CCCn1cnc(CCNC(=O)Nc2nc3c(s2)-c2nc(-c4ccccc4Br)ncc2CC3)c1, CC(C)(C)OC(=O)Nc1cccc(CNC(=O)Nc2nc3c(s2)-c2nc(-c4ccccc4Cl)ncc2CC3)c1, O=C(NCc1cccc(N2CCNC2=O)c1)Nc1nc2c(s1)-c1nc(-c3ccccc3Br)ncc1CC2, O=C(Nc1ccccc1)Nc1nc2c(s1)-c1nc(-c3ccccc3Cl)ncc1CC2, O=C(NCc1cccc(NC(=O)C2CCCC2)c1)Nc1nc2c(s1)-c1nc(-c3ccccc3Cl)ncc1CC2, O=C(NCCC(=O)N1CCCCC1)Nc1nc2c(s1)-c1nc(-c3ccccc3Cl)ncc1CC2, CC(C)COC(=O)N[C@H]1CCN(C(=O)Nc2nc3c(s2)-c2nc(-c4ccccc4Cl)ncc2CC3)C1, CCN1CCC[C@@H]1CNC(=O)Nc1nc2c(s1)-c1nc(-c3ccccc3Cl)ncc1CC2, O=C(NCCc1nc(C2CC2)no1)Nc1nc2c(s1)-c1nc(-c3ccccc3Br)ncc1CC2, CC(C)CC(=O)Nc1cccc(CNC(=O)Nc2nc3c(s2)-c2nc(-c4ccccc4Cl)ncc2CC3)c1, O=C(Nc1nc2c(s1)-c1nc(-c3ccccc3Cl)ncc1CC2)NC1CCCCC1, O=C(Nc1nc2c(s1)-c1nc(-c3ccccc3Cl)ncc1CC2)N1CCC(CN2CCc3ccccc3C2=O)C1 (configuration not stated), CN(C)S(=O)(=O)Nc1cccc(CNC(=O)Nc2nc3c(s2)-c2nc(-c4ccccc4Cl)ncc2CC3)c1, O=C(NCc1nnn[nH]1)Nc1nc2c(s1)-c1nc(-c3ccccc3Cl)ncc1CC2, CN(C)CCN(C)C(=O)Nc1nc2c(s1)-c1nc(-c3ccccc3Cl)ncc1CC2, COC(=O)CNC(=O)Nc1nc2c(s1)-c1nc(-c3ccccc3Cl)ncc1CC2, CC(NC(=O)Nc1nc2c(s1)-c1nc(-c3ccccc3Cl)ncc1CC2)c1cccc(NC(=O)OC(C)(C)C)c1 (configuration not stated), O=C(NCc1cc(C2CC2)n[nH]1)Nc1nc2c(s1)-c1nc(-c3ccccc3C(F)(F)F)ncc1CC2, CCc1csc(CCNC(=O)Nc2nc3c(s2)-c2nc(-c4ccccc4C(F)(F)F)ncc2CC3)n1, CCCn1cnc(CCNC(=O)Nc2nc3c(s2)-c2nc(-c4ccccc4Cl)ncc2CC3)c1, CC(C)(C)OC(=O)CCNC(=O)Nc1nc2c(s1)-c1nc(C(C)(C)C)ncc1CC2, CC(C)c1nnc(CCNC(=O)Nc2nc3c(s2)-c2nc(-c4ccccc4Cl)ncc2CC3)o1, CC(C)c1noc(CCNC(=O)Nc2nc3c(s2)-c2nc(-c4ccccc4Cl)ncc2CC3)n1, Cc1c[nH]c(CCNC(=O)Nc2nc3c(s2)-c2nc(-c4ccccc4Cl)ncc2CC3)n1, O=C(Nc1ccc(N2CCNCC2)cc1)Nc1nc2c(s1)-c1nc(-c3ccccc3Cl)ncc1CC2, Cn1cc(CNC(=O)Nc2nc3c(s2)-c2nc(-c4ccccc4Cl)ncc2CC3)cn1, CN(C)CCCCNC(=O)Nc1nc2c(s1)-c1nc(-c3ccccc3Cl)ncc1CC2, CC(C)OCCCNC(=O)Nc1nc2c(s1)-c1nc(-c3ccccc3Cl)ncc1CC2, CC(C)N(C)C(=O)c1cccc(CNC(=O)Nc2nc3c(s2)-c2nc(-c4ccccc4Cl)ncc2CC3)c1, COc1cccc([C@@H](C)NC(=O)Nc2nc3c(s2)-c2nc(-c4ccccc4Cl)ncc2CC3)c1, Cc1nc2ccccc2n1CC(C)(C)NC(=O)Nc1nc2c(s1)-c1nc(-c3ccccc3Cl)ncc1CC2, NC(=O)Nc1nc2c(s1)-c1nc(-c3ccccc3C(F)(F)F)ncc1CC2, CN(C)C(=O)c1cccc(CNC(=O)Nc2nc3c(s2)-c2nc(-c4ccccc4Cl)ncc2CC3)c1, CCN(CC)CCNC(=O)Nc1nc2c(s1)-c1nc(-c3ccccc3Cl)ncc1CC2, CC(C)(C)OC(=O)N[C@H]1CCN(C(=O)Nc2nc3c(s2)-c2nc(-c4ccccc4Cl)ncc2CC3)C1, CN(Cc1cccc(CNC(=O)Nc2nc3c(s2)-c2nc(-c4ccccc4Cl)ncc2CC3)c1)C(=O)OC(C)(C)C, CCc1noc(CCNC(=O)Nc2nc3c(s2)-c2nc(-c4ccccc4Br)ncc2CC3)n1, CC(C)CC(=O)N[C@H]1CCN(C(=O)Nc2nc3c(s2)-c2nc(-c4ccccc4Cl)ncc2CC3)C1, CC(C)CN(C)C(=O)CCNC(=O)Nc1nc2c(s1)-c1nc(-c3ccccc3Cl)ncc1CC2, CN(C)C(=O)Nc1cccc(CNC(=O)Nc2nc3c(s2)-c2nc(-c4ccccc4Cl)ncc2CC3)c1, CN(C)C(=O)Nc1nc2c(s1)-c1nc(C(C)(C)C)ncc1CC2, COc1ccc(CCNC(=O)Nc2nc3c(s2)-c2nc(-c4ccccc4Cl)ncc2CC3)cc1OC, COCCCNC(=O)Nc1nc2c(s1)-c1nc(-c3ccccc3Cl)ncc1CC2, O=C(Nc1nc2c(s1)-c1nc(-c3ccccc3Cl)ncc1CC2)N1CC[C@@H](NC(=O)N2CCCCC2)C1, CCn1cc(CNC(=O)Nc2nc3c(s2)-c2nc(-c4cccc(F)c4Cl)ncc2CC3)cn1, CC(C)(C)OC(=O)N1CCC(CNC(=O)Nc2nc3c(s2)-c2nc(-c4ccccc4Cl)ncc2CC3)CC1, CC(C)C(=O)N[C@H]1CCN(C(=O)Nc2nc3c(s2)-c2nc(-c4ccccc4Cl)ncc2CC3)C1, O=C(CCNC(=O)Nc1nc2c(s1)-c1nc(-c3ccccc3Cl)ncc1CC2)NC1CC1, O=C(NCc1ccc2cc[nH]c2c1)Nc1nc2c(s1)-c1nc(-c3ccccc3Cl)ncc1CC2, CC(C)NC(=O)N[C@H]1CCN(C(=O)Nc2nc3c(s2)-c2nc(-c4ccccc4Cl)ncc2CC3)C1, NC(=O)Nc1nc2c(s1)-c1nc(-c3ccccc3Cl)ncc1CC2, N#Cc1cccc(CNC(=O)Nc2nc3c(s2)-c2nc(-c4ccccc4Cl)ncc2CC3)c1, O=C(O)CC1(CNC(=O)Nc2nc3c(s2)-c2nc(-c4ccccc4Cl)ncc2CC3)CCCCC1, CC(C)c1nnc(CCNC(=O)Nc2nc3c(s2)-c2nc(-c4ccccc4Br)ncc2CC3)o1, CCc1cnc(CCNC(=O)Nc2nc3c(s2)-c2nc(C(C)(C)C)ncc2CC3)o1, CC(=O)Nc1cccc(CNC(=O)Nc2nc3c(s2)-c2nc(-c4ccccc4Cl)ncc2CC3)c1, CN(C)CC(=O)N[C@H]1CCN(C(=O)Nc2nc3c(s2)-c2nc(-c4ccccc4Cl)ncc2CC3)C1, NC(=O)Nc1nc2c(s1)-c1nc(-c3cccc(F)c3Cl)ncc1CC2, CC(C)OC(=O)N[C@@H]1CCN(C(=O)Nc2nc3c(s2)-c2nc(-c4ccccc4Cl)ncc2CC3)C1, CN(C)C(=O)CNC(=O)Nc1nc2c(s1)-c1nc(-c3ccccc3Cl)ncc1CC2, CC(C)CN(C)C(=O)c1cccc(CNC(=O)Nc2nc3c(s2)-c2nc(-c4ccccc4Cl)ncc2CC3)c1, CC(C)CNC(=O)Nc1nc2c(s1)-c1nc(-c3ccccc3Cl)ncc1CC2, O=C(NCc1cccc(N2CCCC2=O)c1)Nc1nc2c(s1)-c1nc(-c3ccccc3Cl)ncc1CC2, CC(C)CC(=O)N[C@@H]1CCN(C(=O)Nc2nc3c(s2)-c2nc(-c4ccccc4Cl)ncc2CC3)C1, CC(=O)NC1CCN(C(=O)Nc2nc3c(s2)-c2nc(-c4ccccc4Cl)ncc2CC3)C1 (configuration not stated), O=C(NCCc1ccncc1)Nc1nc2c(s1)-c1nc(-c3ccccc3Cl)ncc1CC2, CC(C)(CNc1ncccn1)NC(=O)Nc1nc2c(s1)-c1nc(-c3ccccc3Cl)ncc1CC2, O=C(NCc1cccc(C(=O)N2CCCC2)c1)Nc1nc2c(s1)-c1nc(-c3ccccc3Cl)ncc1CC2, CC1(C)C(c2ccccc2)CCN1C(=O)Nc1nc2c(s1)-c1nc(-c3ccccc3Cl)ncc1CC2 (configuration not stated), CCC(=O)N[C@H]1CCN(C(=O)Nc2nc3c(s2)-c2nc(-c4ccccc4Cl)ncc2CC3)C1, CN(C)CCCNC(=O)Nc1nc2c(s1)-c1nc(-c3ccccc3Cl)ncc1CC2, CNC(=O)Nc1nc2c(s1)-c1nc(C(C)(C)C)ncc1CC2, Cn1nc(CNC(=O)Nc2nc3c(s2)-c2nc(-c4ccccc4Cl)ncc2CC3)cc1O, CC(C)(C)OCCNC(=O)Nc1nc2c(s1)-c1nc(-c3ccccc3Cl)ncc1CC2, O=C(NC[C@H]1CCCN1)Nc1nc2c(s1)-c1nc(-c3ccccc3Cl)ncc1CC2, CC(C)(C)c1ncc2c(n1)-c1sc(NC(N)=O)nc1CC2, COc1cccc(CCNC(=O)Nc2nc3c(s2)-c2nc(-c4ccccc4Cl)ncc2CC3)c1, CC1(C)NC(=O)N(Cc2ccc(CNC(=O)Nc3nc4c(s3)-c3nc(-c5ccccc5Cl)ncc3CC4)cc2)C1=O, COc1cccc(CNC(=O)Nc2nc3c(s2)-c2nc(-c4ccccc4Cl)ncc2CC3)c1OC, O=C(NCc1ccc(CN2CCNC2=O)cc1)Nc1nc2c(s1)-c1nc(-c3ccccc3Cl)ncc1CC2, COCCNC(=O)CCNC(=O)Nc1nc2c(s1)-c1nc(-c3ccccc3Cl)ncc1CC2, O=C(NCc1cccs1)Nc1nc2c(s1)-c1nc(-c3ccccc3Cl)ncc1CC2, CCc1nnc(CCNC(=O)Nc2nc3c(s2)-c2nc(-c4ccccc4Cl)ncc2CC3)o1, O=C(Nc1nc2c(s1)-c1nc(-c3ccccc3Cl)ncc1CC2)N1CC[C@@H](NC(=O)N2CCOCC2)C1, O=C(Nc1nc2c(s1)-c1nc(-c3ccccc3Cl)ncc1CC2)N1CCCC(C(O)c2ccccc2)C1 (configuration not stated), O=C(Nc1nc2c(s1)-c1nc(-c3ccccc3Cl)ncc1CC2)N1CCOCC1, O=C(NCCN1CCCC1)Nc1nc2c(s1)-c1nc(-c3ccccc3Cl)ncc1CC2
